Results reported in patent publication US5498632A, “Esters of acyl carnitines with long-chain aliphatic alcohols and pharmaceutical compositions containing same having antibacterial activity” (Sigma-Tau Industrie Farmaceutiche Riunite S.p.A., priority 1992, dated 1996).
Like-named read-outs stand apart in the source and are kept apart here.

Key:
[1] = test system: Helicobacter pylori NCTC 11637; assay: MIC in agar (agar dilution); assay type: cell-based; conditions: for MIC: Helicobacter pylori, NCTC11637
Protocol: In this experiment the activity of ST 722 and ST 712 against Campylobacter and Helicobacter was investigated.
Campylobacter fetus ATCC 27374, Campylobacter coli LI 048, Campylobacter jejuni 84-ISS, and Helicobacter pylori NCTC 11637.
The culture medium was Columbia agar base supplemented with 7% (V/V) defribinated horse blood (DHB) for Campylobacter strains, and the same medium additioned with Vitox (Oxoid) for Helicobacter strain.
The Campylobacter and Helicobacter strains, preserved at -80° C. in DHB containing 10% (V/V) glycerol, were thawed and grown, in their respective culture medium, in culture flasks, which were incubated for 48 hours at 37° C. in a 10% CO2 atmosphere. After this first growth cycle, the bacteria were allowed to go through a second growth cycle in the same conditions as above.
The bacterial "patina" was then harvested by resuspension in 4-5 ml of Mueller-Hinton broth, the turbidity of which was then assessed according to Mc Farland's criteria (BRAY W. E., Clinical Laboratory Methods, 5th Ed. C. V. MOSBY, St. Louis, Mo. 1957). […]
With a Steers-type multipoint inoculator (STEERS E., FOLTZ E. L., GRAVES S., RIDEN J., 1959. Inocula-replicating apparatus for routine testing of antibacterial susceptibility to antibiotics. Antibiot. Chemoter. 9: 307-311) 1-μl volumes of the above standardized suspensions were spot-transferred into the wells of a 96-well microtiter plate, which had previously been filled with 0.2 ml/well of Mueller-Hinton agar 5% DHB, containing the test substances at different concentrations.
The plates was then incubated for 48/72 hours at 37° C. in a 10% CO2 atmosphere.

[2] = test system: H. pylori sessile cells (NCTC 11637); assay: Bactericidal effect against H. pylori sessile cells (attached to HEp-2); assay type: cell-based, Helicobacter pylori
Description: The investigation aimed at evaluating the difference in susceptibility to ST 722 of planktonic and sessile Helicobacter cells, using in the latter case an "in vitro" experimental model, which closely resembled the clinical condition occurring "in vivo" in type-B gastritis. We used HEp-2 cells, an epithelial cell line which harbors the same membrane glycolipid receptors for H. pylori as those harbored by the mucous cells of the antral gastric mucosa (MEGRAUD, F., TRIMOULET, P., LAMOULIATTE, H. and BOYANOVA, L., 1991. Bacterial effect of Amoxicillin on "H. pylori" in an in vitro model using epithelial cells. Antimicrob. Agents Chemoter. 35 (5): 869-872 and LINGWOOD, C. A., LAW, H. and PELLIZANI, A., 1989. Gastric glycerolipid as a receptor for Campylobacter pylori. Lancet i: 238-241). Additionally, the viability of HEp-2 cells (either infected or not) was evaluated following "in vitro" ST 722 treatment. The degree of cytotoxicity was assessed by cytofiuorimetric analysis of Propidium Iodine-stained HEp-2 cells.
An HEp-2 epithelial cell line (a human larynx carcinoma) was used to permit the attachment of Helicobacter cells (sessile cells).
Helicobacter pylori NCTC 11637.
The antibacterial and cytotoxic activity of ST 722 against Helicobacter and HEp-2 cells, respectively, was evaluated by using 3 different ST 722 concentrations, namely 0.1, 1.56 (i.e. the MIC value vs. H. pylori NCTC 11637) and 4 mcg/ml.
A confluent HEp-2 cell culture is prepared, which is obtained after incubating the cell line in tissue culture flasks for 24 hours (37° C., 10% CO2, and ~96% humidity) in Columbia agar medium supplemented with Vitox and 7% defribinated horse serum. The bacteria are first harvested with DMEM medium 10% FCS, and then inoculated onto the HEp-2 cells to obtain a concentration of 5.0×10^6 CFU per flask (i.e. 2.0×10^5 CFU/cm^2).
Bacterial adhesion to the epitelial cells is favored by incubation for 2 hours at 37° C. and 5% CO2. After washing to remove the non attached bacteria. ST 722 is added (5 ml of 3 different concentrations) to the HEp-2 cell culture flasks.
Two additional flasks are added with 5 ml medium lacking ST 722, as Helicobacter growth controls.
At a predetermined time, the flasks were taken, the medium was discarded, and the cells were washed. The cells were harvested with a rubber policeman in 1 ml of phosphate-buffered saline and disrupted with an Ultraturax homogenizer.
After making geometric dilutions of the suspensions (0.1 ml of each dilution inoculated onto each plate in triplicate), the plates were incubated for 7 days in a microaerobic atmosphere, and the plates with 30 to 200 CFU were counted.
The ST 722 activity against Helicobacter planktonic cells was determined in the same experimental conditions in the absence of HEp-2 cells. Finally, the results are expressed as CFU per flask of each sample with respect to the relevant control (i.e. sessile or planktonic cultures).

## CCCCCCCCCCCOC(=O)CC(C[N+](C)(C)C)OC(=O)CC(C)C [ST 722, Isovaleryl-L-Carnitine Undecyl Ester Chloride]
[1]; I = inoculum of 1.0 × 10^5 cells/ml, read-out: MIC in agar
  MIC: 1.56 µg/mL
[1]; agar medium, inoculum not given, read-out: MIC vs. H. pylori NCTC 11637
  MIC: 1.56 µg/mL
[1]; II = inoculum of 1.0 × 10^6 cells/ml
  MIC in agar: 1.56 µg/mL
[1]; agar, Helicobacter and Campylobacter strains
  antibacterial activity for Helicobacter and Campylobacter: possess an antibacterial activity
[2]; 3-h contact, 0.1 mcg/ml
  Sessile cells (CFU per flask): 9.50 × 10^2 CFU per flask
[2]; 3-h contact, 1.56 mcg/ml
  Sessile cells (CFU per flask): 9.50 × 10^2 CFU per flask
[2]; 3-h contact, 4.0 mcg/ml
  Sessile cells (CFU per flask): 4.50 × 10^2 CFU per flask
[2]; 24-h contact, 0.1 mcg/ml
  Sessile cells (CFU per flask): 4.35 × 10^5 CFU per flask
[2]; 24-h contact, 1.56 mcg/ml
  Sessile cells (CFU per flask): 1.80 × 10^5 CFU per flask
[2]; 24-h contact, 4.0 mcg/ml
  Sessile cells (CFU per flask): 1.75 × 10^5 CFU per flask
[2]; Helicobacter pylori, NCTC11637, HEp-2, 3-h contact, 4 mcg/ml, read-out: reduction of number of sessile bacterial cells
  killing at 4 µg/mL: ~50%
